Experimental data taken from ChEMBL document CHEMBL1154597, “1,1'-Disubstituted ferrocenes as molecular hinges in mono- and bivalent dopamine receptor ligands” (J Med Chem, 2009).

Key:
D(3) dopamine receptor = D(3) dopamine receptor (Homo sapiens, UniProt P35462); experiment: Displacement of [3H]spiperone from human cloned dopamine D3 receptor expressed in CHO cells; type: cell-based
D(1A) dopamine receptor = D(1A) dopamine receptor (Sus scrofa, UniProt P50130); experiment: Displacement of [3H]SCH23390 from dopamine D1 receptor in pig striatal membranes; type: cell membranes, Striatum, Membrane
Sequence of D(1A) dopamine receptor (P50130 whole entry): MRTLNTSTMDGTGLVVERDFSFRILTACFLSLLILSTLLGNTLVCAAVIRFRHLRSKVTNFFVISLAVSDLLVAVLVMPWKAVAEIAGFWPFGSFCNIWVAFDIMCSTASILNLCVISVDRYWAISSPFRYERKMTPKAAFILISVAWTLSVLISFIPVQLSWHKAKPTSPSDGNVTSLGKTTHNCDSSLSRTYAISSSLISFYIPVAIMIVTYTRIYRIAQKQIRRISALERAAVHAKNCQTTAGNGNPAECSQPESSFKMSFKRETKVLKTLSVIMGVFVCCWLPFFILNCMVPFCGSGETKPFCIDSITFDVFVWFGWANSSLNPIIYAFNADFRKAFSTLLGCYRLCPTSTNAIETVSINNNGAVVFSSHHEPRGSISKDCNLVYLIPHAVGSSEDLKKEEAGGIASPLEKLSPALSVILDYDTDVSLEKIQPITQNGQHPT

[1] = biological target: 5-hydroxytryptamine receptor 2A (Sus scrofa, UniProt P50129); experiment: Displacement of [3H]ketanserin from 5HT2 receptor in pig striatal membranes; type: cell membranes, Striatum, Membrane
Sequence of 5-hydroxytryptamine receptor 2A (P50129 whole entry): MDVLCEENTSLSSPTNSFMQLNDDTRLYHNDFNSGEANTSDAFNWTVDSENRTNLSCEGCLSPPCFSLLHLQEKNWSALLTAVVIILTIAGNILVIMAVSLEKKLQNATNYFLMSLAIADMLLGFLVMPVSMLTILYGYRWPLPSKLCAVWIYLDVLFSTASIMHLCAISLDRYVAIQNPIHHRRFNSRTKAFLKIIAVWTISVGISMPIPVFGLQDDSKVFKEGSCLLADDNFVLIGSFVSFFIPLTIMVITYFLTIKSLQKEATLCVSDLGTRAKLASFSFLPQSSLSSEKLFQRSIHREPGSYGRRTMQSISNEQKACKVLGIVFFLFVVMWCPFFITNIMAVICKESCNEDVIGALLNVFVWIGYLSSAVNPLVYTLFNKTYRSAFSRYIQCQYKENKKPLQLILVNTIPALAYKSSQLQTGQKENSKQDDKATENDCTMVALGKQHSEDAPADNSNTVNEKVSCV

D(2) dopamine receptor [2] = biological target: T1, D(2) dopamine receptor (Homo sapiens, UniProt P14416); experiment: Displacement of [3H]spiperone from human cloned dopamine D2short receptor expressed in CHO cells; type: cell-based
T1 sequence (P14416 whole entry): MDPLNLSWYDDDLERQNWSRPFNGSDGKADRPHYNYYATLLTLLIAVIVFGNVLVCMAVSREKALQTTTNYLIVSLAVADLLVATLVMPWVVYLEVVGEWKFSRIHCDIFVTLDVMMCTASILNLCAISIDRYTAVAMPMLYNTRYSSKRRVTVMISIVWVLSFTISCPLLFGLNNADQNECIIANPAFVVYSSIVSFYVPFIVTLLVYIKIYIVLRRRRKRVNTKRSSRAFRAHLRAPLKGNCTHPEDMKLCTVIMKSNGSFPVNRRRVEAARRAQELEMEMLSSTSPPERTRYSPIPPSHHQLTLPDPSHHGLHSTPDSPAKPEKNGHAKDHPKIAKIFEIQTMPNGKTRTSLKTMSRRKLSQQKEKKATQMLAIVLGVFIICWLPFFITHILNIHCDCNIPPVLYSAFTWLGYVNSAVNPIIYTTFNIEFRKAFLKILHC

[3] = Displacement of [3H]prazosin from adrenergic alpha1 receptor in pig striatal membranes; type: cell membranes, Sus scrofa, Striatum, Membrane
D(2) dopamine receptor [4] = biological target: T1, D(2) dopamine receptor; experiment: Displacement of [3H]spiperone from human cloned dopamine D2long receptor expressed in CHO cells; type: cell-based
D(4) dopamine receptor = biological target: T2, D(4) dopamine receptor (Homo sapiens, UniProt P21917); experiment: Displacement of [3H]spiperone from human cloned dopamine D4.4 receptor expressed in CHO cells; type: cell-based
T2 sequence (P21917 whole entry): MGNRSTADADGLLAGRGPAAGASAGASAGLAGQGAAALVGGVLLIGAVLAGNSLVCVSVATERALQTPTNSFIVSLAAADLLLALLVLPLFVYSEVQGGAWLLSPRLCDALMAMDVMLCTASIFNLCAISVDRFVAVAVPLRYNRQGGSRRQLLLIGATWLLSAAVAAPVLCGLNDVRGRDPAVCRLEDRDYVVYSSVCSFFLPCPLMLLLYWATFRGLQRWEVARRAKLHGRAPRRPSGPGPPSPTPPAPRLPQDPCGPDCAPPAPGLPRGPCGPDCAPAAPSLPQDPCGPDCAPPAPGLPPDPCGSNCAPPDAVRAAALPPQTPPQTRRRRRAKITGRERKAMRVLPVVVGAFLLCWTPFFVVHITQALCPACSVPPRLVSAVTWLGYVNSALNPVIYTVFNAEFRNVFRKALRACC

[5] = Displacement of [3H]WAY100635 from 5HT1A receptor in pig striatal membranes; type: cell membranes, Sus scrofa, Striatum, Membrane

Sequence of D(3) dopamine receptor (P35462 whole entry): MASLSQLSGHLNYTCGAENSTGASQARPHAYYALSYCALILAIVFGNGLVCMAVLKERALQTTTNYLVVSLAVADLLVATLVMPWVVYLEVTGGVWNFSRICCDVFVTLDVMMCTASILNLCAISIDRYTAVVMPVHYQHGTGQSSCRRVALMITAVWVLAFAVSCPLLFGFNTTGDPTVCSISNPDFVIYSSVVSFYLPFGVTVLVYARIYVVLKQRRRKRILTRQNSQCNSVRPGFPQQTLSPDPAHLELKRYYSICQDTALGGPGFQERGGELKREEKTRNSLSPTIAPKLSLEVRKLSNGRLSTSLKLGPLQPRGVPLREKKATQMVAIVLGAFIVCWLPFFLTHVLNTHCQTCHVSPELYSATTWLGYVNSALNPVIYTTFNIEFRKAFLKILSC

Row | Ki (D(3) dopamine receptor) [nM] | Ki (D(1A) dopamine receptor) [µM] | Ki [1] [nM] | Ki (D(2) dopamine receptor [2]) [µM] | Ki [3] [nM] | Ki (D(2) dopamine receptor [4]) [µM] | Ki (D(4) dopamine receptor) [nM] | Ki [5] [nM] | Structure (SMILES)
1 | 70 | 9.5 | 1700 | 0.77 | 230 | 2 | 850 | 1200 | COc1ccccc1N1CCN(CCCCNC(=O)c2ccc(-c3cn(Cc4ccc(-c5ccc(Cn6cc(-c7ccc(C(=O)NCCCCN8CCN(c9ccccc9OC)CC8)cc7)nn6)cc5)cc4)nn3)cc2)CC1
2 | 230 | 3.4 | 3400 | 10 | 350 | 15 | 3400 | 2500 | COc1ccccc1N1CCN(CCCCNC(=O)c2cccc(-c3cn(Cc4ccc(-c5ccc(Cn6cc(-c7cccc(C(=O)NCCCCN8CCN(c9ccccc9OC)CC8)c7)nn6)cc5)cc4)nn3)c2)CC1
